One compound from ChEMBL document CHEMBL1132755, “First enantiospecific synthesis of a 3,4-dihydroxy-L-glutamic acid [(3S,4S)-DHGA], a new mGluR1 agonist” (Bioorg Med Chem Lett, 2000) can be followed below.

pEC50: −log10 of the molar value.

For experiment [1], the target named is Metabotropic glutamate receptor 4 (Homo sapiens) (UniProt Q14833). In words: Tested for inhibition of glutamate induced stimulation of Metabotropic glutamate receptor 4 in HEK 293 cells. In kind it is functional, cell-based. Particulars: HEK293; concentration not given here.
Sequence of Metabotropic glutamate receptor 4 (Homo sapiens) (Q14833 whole entry): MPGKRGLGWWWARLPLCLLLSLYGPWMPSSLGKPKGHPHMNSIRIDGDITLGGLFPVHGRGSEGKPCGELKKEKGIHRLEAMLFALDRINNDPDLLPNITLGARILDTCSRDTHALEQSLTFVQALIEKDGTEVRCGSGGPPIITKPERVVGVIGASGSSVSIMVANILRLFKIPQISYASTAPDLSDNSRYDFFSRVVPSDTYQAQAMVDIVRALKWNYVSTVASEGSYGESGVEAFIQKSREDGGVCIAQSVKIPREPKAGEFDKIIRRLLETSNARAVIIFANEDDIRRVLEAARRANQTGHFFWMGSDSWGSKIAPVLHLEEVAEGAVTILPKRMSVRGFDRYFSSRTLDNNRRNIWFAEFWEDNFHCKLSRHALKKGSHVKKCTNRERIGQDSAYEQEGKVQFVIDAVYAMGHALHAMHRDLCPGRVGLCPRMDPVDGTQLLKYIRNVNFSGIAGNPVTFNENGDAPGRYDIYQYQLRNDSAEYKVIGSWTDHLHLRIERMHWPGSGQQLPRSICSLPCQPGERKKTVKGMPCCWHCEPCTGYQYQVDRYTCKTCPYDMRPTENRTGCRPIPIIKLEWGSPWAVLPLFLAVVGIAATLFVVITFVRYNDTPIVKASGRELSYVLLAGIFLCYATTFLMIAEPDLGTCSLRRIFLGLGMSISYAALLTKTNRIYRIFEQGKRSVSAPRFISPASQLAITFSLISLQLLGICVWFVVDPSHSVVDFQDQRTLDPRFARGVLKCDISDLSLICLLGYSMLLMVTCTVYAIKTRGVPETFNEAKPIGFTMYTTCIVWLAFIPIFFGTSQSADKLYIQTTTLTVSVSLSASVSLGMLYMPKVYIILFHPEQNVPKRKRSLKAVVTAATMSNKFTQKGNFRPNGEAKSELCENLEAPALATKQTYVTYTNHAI
Experiment [2] deals with Metabotropic glutamate receptor 1 (Homo sapiens, UniProt Q13255). In words: Effect of compound on Metabotropic glutamate receptor 1 expressed in HEK 293 cells was determined by measuring IP production relative to glutamate. In kind it is functional, cell-based, HEK293.
Sequence of Metabotropic glutamate receptor 1 (Q13255 whole entry): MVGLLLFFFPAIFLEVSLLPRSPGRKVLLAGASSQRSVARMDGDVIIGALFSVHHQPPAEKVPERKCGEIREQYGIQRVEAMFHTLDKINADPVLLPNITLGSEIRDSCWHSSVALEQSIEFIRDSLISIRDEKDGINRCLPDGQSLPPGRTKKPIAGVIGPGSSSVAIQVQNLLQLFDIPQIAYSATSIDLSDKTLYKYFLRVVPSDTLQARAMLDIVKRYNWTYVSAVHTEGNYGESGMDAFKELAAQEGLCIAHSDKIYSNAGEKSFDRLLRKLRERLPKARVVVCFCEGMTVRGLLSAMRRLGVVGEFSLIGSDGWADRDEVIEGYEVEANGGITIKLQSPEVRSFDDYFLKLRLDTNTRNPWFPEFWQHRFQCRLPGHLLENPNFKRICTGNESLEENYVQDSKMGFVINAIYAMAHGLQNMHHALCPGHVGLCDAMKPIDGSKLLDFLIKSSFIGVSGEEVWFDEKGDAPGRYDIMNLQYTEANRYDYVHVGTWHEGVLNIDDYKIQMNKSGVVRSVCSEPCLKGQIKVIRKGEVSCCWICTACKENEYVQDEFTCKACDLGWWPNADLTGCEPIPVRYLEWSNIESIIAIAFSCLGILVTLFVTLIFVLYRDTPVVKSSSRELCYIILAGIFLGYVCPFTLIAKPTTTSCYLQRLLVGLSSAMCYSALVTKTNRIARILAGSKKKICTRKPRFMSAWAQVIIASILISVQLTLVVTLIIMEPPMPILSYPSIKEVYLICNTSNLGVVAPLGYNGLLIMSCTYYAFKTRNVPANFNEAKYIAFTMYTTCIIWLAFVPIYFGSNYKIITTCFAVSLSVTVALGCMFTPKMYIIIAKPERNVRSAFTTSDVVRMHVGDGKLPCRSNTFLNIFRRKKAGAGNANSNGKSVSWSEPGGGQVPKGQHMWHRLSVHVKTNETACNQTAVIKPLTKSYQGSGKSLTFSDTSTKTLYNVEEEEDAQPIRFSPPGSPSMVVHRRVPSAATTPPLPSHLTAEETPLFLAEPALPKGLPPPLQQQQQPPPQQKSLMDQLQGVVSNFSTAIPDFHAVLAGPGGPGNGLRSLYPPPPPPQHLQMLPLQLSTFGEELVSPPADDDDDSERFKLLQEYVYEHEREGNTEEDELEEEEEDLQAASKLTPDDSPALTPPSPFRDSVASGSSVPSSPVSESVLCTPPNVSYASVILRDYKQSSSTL
Experiment [3] addresses Metabotropic glutamate receptor 2 (Homo sapiens) (UniProt Q14416). The experiment can be described thus: Tested for inhibition of glutamate induced stimulation of Metabotropic glutamate receptor 2 in HEK 293ells. In kind it is functional, cell-based. Conditions: HEK293; concentration not given here.

Sequence of Metabotropic glutamate receptor 2 (Homo sapiens) (Q14416 19-872 limits assumed): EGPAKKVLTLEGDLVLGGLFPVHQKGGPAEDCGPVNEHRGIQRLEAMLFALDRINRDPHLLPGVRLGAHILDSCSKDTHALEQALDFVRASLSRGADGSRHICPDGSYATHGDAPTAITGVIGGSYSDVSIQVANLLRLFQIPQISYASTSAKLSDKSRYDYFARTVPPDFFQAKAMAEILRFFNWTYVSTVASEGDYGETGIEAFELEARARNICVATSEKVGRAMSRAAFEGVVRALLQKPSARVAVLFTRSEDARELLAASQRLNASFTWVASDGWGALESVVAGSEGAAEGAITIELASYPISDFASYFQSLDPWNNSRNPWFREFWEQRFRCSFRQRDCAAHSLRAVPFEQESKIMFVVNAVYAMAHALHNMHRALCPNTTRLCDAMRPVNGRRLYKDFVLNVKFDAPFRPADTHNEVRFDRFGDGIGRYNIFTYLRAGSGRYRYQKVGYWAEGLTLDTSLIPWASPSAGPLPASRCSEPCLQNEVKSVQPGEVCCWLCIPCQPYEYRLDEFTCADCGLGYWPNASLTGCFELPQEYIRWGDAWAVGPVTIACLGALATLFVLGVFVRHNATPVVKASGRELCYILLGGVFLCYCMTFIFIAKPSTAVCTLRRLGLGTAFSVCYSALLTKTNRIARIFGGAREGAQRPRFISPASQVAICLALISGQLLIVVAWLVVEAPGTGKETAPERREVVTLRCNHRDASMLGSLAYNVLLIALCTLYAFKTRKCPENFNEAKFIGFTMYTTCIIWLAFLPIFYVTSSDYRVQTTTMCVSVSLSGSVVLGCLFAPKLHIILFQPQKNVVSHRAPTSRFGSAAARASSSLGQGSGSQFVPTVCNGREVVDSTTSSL

With `N[C@H](C(=O)O)[C@H](O)[C@H](O)C(=O)O`, the inhibition – broadly, the relative decrease from the control value, in per cent – in experiment [1] came to 57%; in experiment [3], 29%. Further, the pEC50 – broadly, the negative decadic logarithm of the EC50, by convention in mol/L – in experiment [2] was 3.59.
